Patent publication EP0994713B1, “USE OF A 7alpha-METHYL-17alpha-ETHYNYL-ESTRANE DERIVATIVE FOR THE TREATMENT OF ATHEROSCLEROSIS” (Akzo Nobel N.V., priority 1997, dated 1998)

What was measured:
Format in all cases: in vivo, New Zealand White rabbits
[1] = system: female ovariectomized rabbits; assay: Intimal thickening (advanced lesions) in carotid artery after de-endothelialisation; details: for Advanced lesions in carotid artery: intimal surface: cholesterol diet, OVX, necropsy at 20 weeks; for advanced lesion formation following mechanical de-endothelisation (in words): Example 2: Org OD14 2 and 6 mg, E2 4 mg orally daily, E2D 150 µg s.c. weekly
Procedure: (§1) The model is considered relevant to the human atherosclerotic process, because the cellular events occurring during the development of the atherosclerotic lesions during the atherogenic diet are similar to those observed in different stages of atherosclerotic processes in coronary arteries.
(§2) An experiment was performed with 7 groups of sexually mature, virgin female New Zealand White rabbits (Harlan, Zeist, The Netherlands), age 7-9 months and weighing approximately 3 kg (number of […] per group: 13-14). During the acclimatization period the rabbits were fed a diet of standard commercial rabbit chow LKK20 (Hope Farms, Woerden, The Netherlands). Three weeks prior to the start of the experiment the animals were anaesthetized and underwent bilateral ovariectomy (OVX) or were sham operated. After three weeks, at the start of the experiment, the rabbits were randomized over the treatment groups. In all animals de-endothelialisation of a segment of the left carotid artery was applied by using the air-drying technique (Fishman, J.A. et al., "Endothelial regeneration in the rat carotid artery and the significance of endothelial denudation in the pathogenesis of myointimal thickening", Lab. Invest. 1975, 32, 339-351; and Lafont, A. et al., "Restenosis and experimental angioplasty: Intimal, medial and adventitial changes associated with constructive remodeling", Circulation Research, 1995, 76, 996-1002)
(§3) The animals were randomly allocated into 7 experimental groups using a randomized block design. The groups were fed an atherogenic diet (commercial rabbit chow (LKK20) enriched with 0.4 grams cholesterol, 3.75 grams coconut oil and 3.75 grams peanut oil per 100 grams). One group was fed the standard rabbit chow (LKK20). Food intake was restricted to 80 grams daily.
(§4) The treatments (Table I) were daily administered orally as a tablet, prepared as in Example 1. Groups 1, 2 and 3 were on a daily placebo treatment. Groups 4-5 were treated with 7α-methyl-17α-ethynyl-17β-hydroxy-estra-5(10)-en-3-one (OD-14; tibolone; 6 or 2 mg daily); group 6 with 17β-estradiol (4 mg daily). Group 7 was on treatment with 17β-estradiol decanoate (150 µg in 1 ml arachis oil injected subcutaneously once a week).
During the experiment blood samples were drawn out of the central ear artery after sedation with Hypnorm (0.1 ml i.m.) (Janssen Pharmaceutics, Beerse, Belgium) before the daily treatment, at week 4,8,12,16 and 20, to monitor the plasma cholesterol levels and to measure, at week 17, plasma estradiol levels and plasma tibolone levels. Twenty weeks after the start of the experiment animals were anaesthetized by an i.m. injection of Hypnorm (0.5 ml/kg). After blood sampling the rabbits were killed by exsanguination and the aortic arch, uterus and carotid artery removed for further analyses. […]
The left (airdried) carotid artery was dissected and fixed in 2% paraformaldehyde containing 6.8% glucose. The right carotid artery was used as comparison. After fixation the tissue was divided in blocks with a length of 2 mm and embedded in paraffin (Paraplast plus®, Sherwood Medical Co, St. Louis, USA) using an automated tissue processor (Hypercenter XP, Shandon).
To measure intimal thickening (using image analysis) a specific staining method and a belonging image analysis application have been developed.
Measurements were performed on 2 µm transverse sections which were treated with elastase (Serva Feinbiochemica Gmbh, Heidelberg, Germany) prior to elastin staining with Lawson solution (Boom, Meppel, the Netherlands) and light green (Sigma). Subsequently sections were airdried and mounted in Pertex (Leica Gmbh, Nussloch, Germany).
For morphological study both methylene blue/Azur II and hemotoxylin/eosin stained (2 µm) transverse sections were used. Smooth muscle cells and macrophages were detected with respectively α-actin antibodies (Sigma) and anti-macrophage antibodies (RAM11, DAKO, Glostrup, Denmark). […]

[2] = system: female ovariectomized rabbits; assay: Vessel wall cholesterol measurement in the aortic arch; details: for Cholesterol level in aortic arch: cholesterol diet, OVX, necropsy at 20 weeks
Procedure: as §1
(§5) An experiment was performed with 7 groups of sexually mature, virgin female New Zealand White rabbits (Harlan, Zeist, The Netherlands), age 7-9 months and weighing approximately 3 kg (number of […] per group: 13-14). During the acclimatization period the rabbits were fed a diet of standard commercial rabbit chow LKK20 (Hope Farms, Woerden, The Netherlands). Three weeks prior to the start of the experiment the animals were anaesthetized and underwent bilateral ovariectomy (OVX) or were sham operated. After three weeks, at the start of the experiment, the rabbits were randomized over the treatment groups.
(§6) The animals were randomly allocated into 7 experimental groups using a randomized block design. […] One group was fed the standard rabbit chow (LKK20). Food intake was restricted to 80 grams daily.
as §4, with “Groups” for “The treatments (Table I) were daily administered orally as a tablet, prepared as in Example 1. Groups”
(§7) During the experiment blood samples were drawn out of the central ear artery after sedation with Hypnorm (0.1 ml i.m.) (Janssen Pharmaceutics, Beerse, Belgium) before the daily treatment, at week 4,8,12,16 and 20, to monitor the plasma cholesterol levels and to measure, at week 17, plasma estradiol levels and plasma tibolone levels. Twenty weeks after the start of the experiment animals were anaesthetized by an i.m. injection of Hypnorm (0.5 ml/kg). After blood sampling the rabbits were killed by exsanguination and the aortic arch, uterus and carotid artery removed for further analyses.
(§8) Three weeks prior to the start of the experiment the animals were ovariectomized. At the start of the experiment the carotid artery was de-endothelialised using the air-drying technique. The normal rabbit chow was replaced by the atherogenic diet except for the control group which received during the experiment the normal rabbit chow.
(§9) Group 5 was on treatment with 17β-estradiol decanoate (300 µg in 1 ml arachis oil injected subcutaneously once a week).
The amount of protein in the tissue was determined by the method of Lowry.

[3] = system: female ovariectomized rabbits; assay: Plasma cholesterol levels, cholesterol fed rabbit model; details: for Mean plasma cholesterol exposure: cholesterol diet, OVX, 20 weeks; for plasma cholesterol levels (in words): Example 2: Org OD14 2 and 6 mg, E2 4 mg orally daily, E2D 150 µg s.c. weekly
Procedure: as §1, §5, §6
as §4, with “Groups” for “The treatments (Table I) were daily administered orally as a tablet, prepared as in Example 1. Groups”
as §7, §8, §9

[4] = system: female ovariectomized rabbits; assay: Uterus weight (estrogenic activity), cholesterol fed rabbit model; details: for Uterus weight per 100 grams body weight: cholesterol diet, OVX, necropsy at 20 weeks
Procedure: as §1, §2, §3, §4, §7
(§10) In addition to example 2 an additional experiment was performed with two lower doses of Org OD14 and a higher dose of estradiol decanoate. […] The procedures were identical to those in example 2.
as §8
(§11) The treatments (table II) of group 1, 2, 3 and 4 were daily administered orally as a tablet, prepared as in example 1. The doses of Org OD14 per tablet, however, were 0.6 mg and 0.15 mg respectively. Group 5 was on treatment with 17β-estradiol decanoate (300 µg in 1 ml arachis oil injected subcutaneously once a week). Twenty weeks after the start of the experiment was ended in the same manner as described in example 2.
(§12) After 20 weeks of diet and of daily treatment, necropsy was performed to determine the accumulation of cholesterol and fatty streaks in the aortic arch and the advanced lesions in the carotid artery. […]

[5] = Body weight at necropsy, cholesterol fed rabbit model; details: cholesterol diet, OVX, necropsy at 20 weeks
Procedure: as §1, §2, §3, §4, §7, §10, §8, §11, §12

[6] = system: female ovariectomized rabbits; assay: Overall atherosclerotic lesion formation, cholesterol fed rabbit model; details: Example 3: Org OD14 0.6 mg orally daily; estradiol decanoate 300 µg s.c. weekly
Procedure: as §1, §10, §8, §11
In example 3 we tested Org OD14 at two lower doses (0.6 and 0.15 mg orally once daily) and estradiol decanoate at a higher dose (300 µg s.c. once weekly). […]

[7] = system: female ovariectomized rabbits; assay: Fatty streaks in the aortic arch (Sudan Red, image analysis); details: cholesterol diet, OVX, necropsy at 20 weeks
Procedure: as §1, §2, §3, §4, §7, §10, §8, §11
The aortic arch was dissected free, opened longitudinally and fixed in 2% paraformaldehyde. The tissue was then stained for lipids using 0.3% (w/v) Sudan Red. Colour photographs were taken of all segments. […]

[8] = Example 2, Group 7: 150 µg subcutaneously once a week
[9] = Example 3: 300 µg subcutaneously once weekly
[10] = Example 2, Group 6: 4 mg orally daily

For `CCCCCCCCCC(=O)O[C@H]1CC[C@H]2[C@@H]3CCc4cc(O)ccc4[C@H]3CC[C@]12C` [Estradiol decanoate, 17β-estradiol decanoate, reference compound], which “Advanced lesions in carotid artery: intimal surface” value (“Advanced lesions in carotid artery” for short) [1, 8] is on record?
The value was 0.23 ± 0.06 * mm^2.

What about the “Histology of the lesions” value ([1]; Example 2, carotid artery, placebo on cholesterol diet: smooth muscle cells and foam cells) of the same compound?
The value was “the lesions still consisted of smooth muscle cells and foam cells”.

And the “advanced lesion formation following mechanical de-endothelisation (in words)” value [1]?
The value was “reduced advanced lesion formation”.

What about the “Advanced lesions in carotid artery” value [1, 9] of the same compound?
Its value is 0.18 ± 0.02 * mm^2.

What about the “Cholesterol level in aortic arch” value [2, 8] of the same compound?
Its value is 318 ± 58 nmol/mg protein.

And the “reduction of cholesterol accumulation in the aortic arch” value ([2]; Example 2: 150 µg s.c. once a week, versus placebo)?
Its value is 46%.

And the “Cholesterol level in aortic arch” value [2, 9]?
The value was 225 ± 69 nmol/mg protein.

What about the “Mean plasma cholesterol exposure” value [3, 8] of the same compound?
Its value is 30.0 ± 3.7 mmol/L/day.

And the “plasma cholesterol levels (in words)” value [3]?
Its value is “did not affect plasma cholesterol levels”.

And the “Mean plasma cholesterol exposure” value [3, 9]?
Its value is 23.0 ± 2.0 mmol/L/day.

And the “Uterus weight per 100 grams body weight” value [4, 8]?
Its value is 0.37 ±0.04 per 100 grams body weight.

What about the “increase of uterus weight” value ([4]; Example 3, text: estradiol decanoate 300 µg s.c. once weekly, versus placebo 0.054) of the same compound?
Its value is 835%.

And the uterus weight ([4]; Example 3, text: estradiol decanoate 300 µg s.c. once weekly, placebo 0.054)?
Its uterus weight is 0.505 grams per 100 grams body weigh.

And the “Uterus weight per 100 grams body weight” value [4, 9]?
Its value is 0.505 ±0.075 per 100 grams body weight.

What about the Body weight [5, 8] of the same compound?
The Body weight was 2973 ± 52 grams.

What about the Body weight [5, 9] of the same compound?
Its Body weight is 3093 ± 60 grams.

What about the “atherosclerotic lesion formation (in words)” value [6] of the same compound?
Its value is “still only partially inhibited”.

What about the “Fatty streak in aortic arch” value [7, 8] of the same compound?
Its value is 28.1 ± 4.1 % of arcus covered.

What about the “Fatty streak in aortic arch” value [7, 9] of the same compound?
Its value is 14.2 ± 3.2 % of arcus covered.

Which “Advanced lesions in carotid artery” value [1, 10] does the source give for `C[C@]12CC[C@@H]3c4ccc(O)cc4CC[C@H]3[C@@H]1CCC2O` (stereo partly drawn) [Estradiol, estra-1,3,5 (10)-triene-3,17-diol, reference compound] here?
Its value is 0.30 ± 0.06 mm^2.

What about the “advanced lesion formation following mechanical de-endothelisation (in words)” value [1] of the same compound?
Its value is “had no effect on advanced lesion formation”.

And the “Cholesterol level in aortic arch” value [2, 10]?
The value was 521 ± 99 nmol/mg protein.

What about the “cholesterol accumulation in the aortic arch (in words)” value ([2]; Example 2: Org OD14 2 and 6 mg, E2 4 mg orally daily) of the same compound?
The value was “did not lead to a reduction in cholesterol accumulation”.

What about the “Mean plasma cholesterol exposure” value [3, 10] of the same compound?
Its value is 27.7 ± 2.8 mmol/L/day.

What about the “plasma cholesterol levels (in words)” value [3] of the same compound?
The value was “did not affect plasma cholesterol levels”.

And the “Uterus weight per 100 grams body weight” value [4, 10]?
Its value is 0.31 ±0.02 per 100 grams body weight.

What about the “Fatty streak in aortic arch” value [7, 10] of the same compound?
Its value is 25.5 ± 5.2 % of arcus covered.
